Data: patent publication US8383672B2, “Halogenated rhodamine derivatives and applications thereof” (Kiadis Pharma Canada Inc., priority 2001, dated 2013)
Entries after “also recorded” stand apart in the source; their conditions may differ.

Key:
S. epidermitis = experiment: Bacteriostatic activity of rhodamine derivatives against Staphilococcus epidermitis (photodynamic treatment, CFU/mL); assay type: cell-based; conditions: for decrease of bacterial growth (bacteriostatic effect): without extrusion time
Procedure: Staphilococcus epidermitis
(§1) The protocol used for the bacteriosidic inactivation was performed as described in Brasseur and coll. with few modifications for bacteriosidic potential assessment (Brasseur et al, 2000).
Bacterial was grown overnight in Lubria Broth medium (LB), 100 μl (≈1×10^7 bacteria) of each bacterial suspension was added to 4 ml of LB medium, a small aliquot of the bacterial suspension was taken out for bacterial titer prior to treatment expressed as CFU/mL. […] Each mixture of bacteria rhodamine derivative was incubated at 37° C. for 40 minutes. The bacteria-rhodamine suspensions were then treated and exposed to a 514 nm wavelength light for 180 minutes, for a total output energy of 30 Joules/cm^2. Following the treatment time, the bacteria-rhodamine suspensions were centrifuged at 3000 g, resuspended in 4 ml and serial dilutions were performed for each duplicate. 10 μL of the diluted bacterial suspensions were plated, the plates incubated overnight at 37° C. The bacteriostatic effect is expressed by the number of CFU/mL.
The protocol used for the bacteriosidic inactivation was performed as described in Brasseur and coll. without modification for bacteriosidic potential assessment (Brasseur et al, 2000).
Bacterial was grown overnight in Lubria Broth medium (LB), 100 μl (≈1×10^7 bacteria) of each bacterial suspension added to 4 ml of LB medium. A small aliquot of the bacterial suspension was taken out for bacterial titer prior to treatment. […] Each mixture of bacteria rhodamine derivative was incubated at 37° C. for 40 minutes. The bacterial suspensions were then centrifuged at 3000 g for 10 minutes, resuspended in 4 mL LB media and incubated for 90 minutes at 37° C. to allow extrusion of the derivatives. The bacteria rhodamines suspensions were then treated and exposed to a 514 nm wavelength light for 180 minutes, for a total output energy of 30 Joules/cm^2. Following the treatment time, serial dilutions were performed for each duplicate and 10 μL of the diluted bacterial suspension was plated, the plates incubated overnight at 37° C. The bacteriostatic effect is expressed by the number of colony forming units/mL.

Cytomegalovirus [1] = experiment: Antiviral assay against Cytomegalovirus in FS cells, with PDT treatment; assay type: cell-based, CMV (AD169); conditions: 50 uM, followed by PDT treatment (180 minutes, 30 Joules/cm^2)
Procedure: The antiviral assay was performed as described in Lin, L (2001). Human diploid fibroblast, foreskin cells (FS), were used in this assay. […].
(§2) FS cells were grown to confluency in shell vials. At the time of infection 2.5-3.5×10^5 cells were growing on each coverslip. The CMV (AD169) stock solution containing 1 mL of virus were quickly thawed, seeded and diluted following 100 fold dilutions in MEM (Earle's salt) supplemented with L-glutamine and 2% FBS, total volume 30 ml.
(§3) The titer of the virus have been determined at 10^−2 (10^4 TCID50) plaque forming units (pfu) in 0.2 ml. Therefore 1 mL used in the PDT experiments represents […]. A M. O. I. of 0.4-0.5 of CMV was used throughout this experiment.
(§4) The plates containing no rhodamines derivatives were treated with light in parallel to the non-light treated plates. The concentration used throughout the assay for the rhodamines derivatives was maintained at 50 uM. Following the addition of the derivatives to the viral stock solution, the plates were placed into the Theralux L6.30 device and illuminated for 180 minutes with 210 rpm agitation. The energy output was measured to be 30 Joules/cm^2. The non-PDT plate was placed into a 37° C. incubator for the same amount of time. Following this treatment time, dilutions were made and inoculated with the FS cells under centrifugation (2000 g, 60 minutes). Following the centrifugation, the cells are incubated 60 minutes at 37° C., 5% CO2, then are washed with the culture media and incubated for 18-24 hours at 37° C. at 5% CO2. Inoculation volume of each dilution was 0.2 ml, the dilutions made were 10^−3 to 10^−5 in duplicate.
The cells were fixed, removed from the vials and stained with labelled FITC (fluorescein isothiocyanate) Mab to CMV immediate early antigen.
CMV viral particles were counted. One fluorescent virus particle (kidney-shaped) represents one plaque forming unit.

P. aeruginosa = experiment: Bacteriostatic activity of rhodamine derivatives against P. aeruginosa (photodynamic treatment, CFU/mL); assay type: cell-based, Pseudomonas aeruginosa; conditions: 50 μM
Procedure: as §1
(§5) Bacterial was grown overnight in Lubria Broth medium (LB), 100 μl (≈1×10^7 bacteria) of each bacterial suspension was added to 4 ml of LB medium, a small aliquot of the bacterial suspension was taken out for bacterial titer prior to treatment expressed as CFU/mL. To the bacterial suspension was added the rhodamines derivatives, each derivative being tested in duplicate at a concentration of 50 μM. Each mixture of bacteria rhodamine derivative was incubated at 37° C. for 40 minutes. The bacteria-rhodamine suspensions were then treated and exposed to a 514 nm wavelength light for 180 minutes, for a total output energy of 30 Joules/cm^2. Following the treatment time, the bacteria-rhodamine suspensions were centrifuged at 3000 g, resuspended in 4 ml and serial dilutions were performed for each duplicate. 10 μL of the diluted bacterial suspensions were plated, the plates incubated overnight at 37° C. The bacteriostatic effect is expressed by the number of CFU/mL.

S. typhimurium = experiment: Bacteriostatic activity of rhodamine derivatives against S. typhimurium (photodynamic treatment, CFU/mL); assay type: cell-based, Salmonella typhimurium; conditions: 50 μM; for antibacterial activity against S. typhimurium: 514 nm light 180 minutes, 30 Joules/cm^2; for log decrease of bacterial growth: S. typhimurium, without extrusion time
Procedure: as §1
as §5, with “(≈×10^7” for “(≈1×10^7”

Cytomegalovirus [2] = experiment: Antiviral assay against Cytomegalovirus in FS cells, without PDT treatment; assay type: cell-based, CMV (AD169); conditions: 50 uM
Procedure: The antiviral assay was performed as described in Lin, L (2001). Human diploid fibroblast, foreskin cells (FS), were used in this assay.
as §2, §3
as §4, with “solution,” for “solution, the plates were placed into the Theralux L6.30 device and illuminated for 180 minutes with 210 rpm agitation. The energy output was measured to be 30 Joules/cm^2. The non-PDT plate was placed into a 37° C. incubator for the same amount of time. Following this treatment time,”, “duplicate. […]” for “duplicate.”
CMV viral particles were counted. […]

E. coli = experiment: Bacteriostatic activity of rhodamine derivatives against E. coli (photodynamic treatment, CFU/mL); conditions: for antibacterial activity against E. coli: 50 μM, 514 nm light 180 minutes, 30 Joules/cm^2; for log decrease of bacterial growth: E. coli, 50 uM, without extrusion time
[3] = 50 μM, 514 nm light 180 minutes, 30 Joules/cm^2

Compound	antibacterial activity (section Staphilococcus epidermitis) (S. epidermitis; [3])	antibacterial activity against S. epidermitis (S. epidermitis; 50 μM, extrusion time of 90 minutes prior to radiation treatment)	effect on bacterial growth (S. epidermitis; S. epidermitis, 50 μM, with 90 minutes extrusion time)	decrease of bacterial growth (bacteriostatic effect) (S. epidermitis; S. epidermitis, 50 μM)	antiviral activity against Cytomegalovirus (Cytomegalovirus [1])	antibacterial activity against P. aeruginosa (P. aeruginosa; 514 nm light 180 minutes, 30 Joules/cm^2)	log decrease of bacterial growth (P. aeruginosa; P. aeruginosa, without extrusion time) [logs]	antibacterial activity against S. typhimurium (S. typhimurium)	log decrease of bacterial growth (S. typhimurium) [logs]	antiviral activity against Cytomegalovirus (infectivity) (Cytomegalovirus [2]; hydrochloride)	antibacterial activity against E. coli (E. coli)	log decrease of bacterial growth (E. coli)	antiviral activity against Cytomegalovirus (infectivity) (Cytomegalovirus [2])	antibacterial activity against S. epidermitis (S. epidermitis; 10 μM, 514 nm light 180 minutes, 30 Joules/cm^2)	decrease of bacterial growth (bacteriostatic effect) (S. epidermitis; S. epidermitis, 10 μM)
COC(=O)c1cc(Cl)c(Cl)cc1-c1c2ccc(=[N+](C)C)cc-2oc2cc(N(C)C)ccc12.[Cl-] [HA-X-40, 2′-(6-dimethylamino-3-dimethylimino-3H-xanthen-9-yl) 4′,5′-dichloro-benzoic acid methyl ester hydrochloride]	showed antibacterial activity	showed antibacterial activity	eradicates bacterial growth	2 logs	possess antiviral activity										
acetate salt of 2,7-dibromorhodamine B hexyl ester [HA-X-149]	showed antibacterial activity			4,5 logs	possess antiviral activity										
COC(=O)c1ccccc1-c1c2ccc(=N)c(Br)c-2oc2c(Br)c(N)ccc12.Cl [TH9402, 4,5-dibromorhodamine 123 (2-(4,5-dibromo-6-amino-3-imino-3H-xanthen-9-yl)-benzoic acid methyl ester hydrochloride), reference compound]	showed antibacterial activity			inhibits bacterial growth		showed antibacterial activity	2	showed antibacterial activity	6.7	inhibit cytometalovirus infectivity; also recorded: did not need PDT treatment to possess antiviral activity	showed antibacterial activity	7 logs			
COCCOCCOC(=O)c1ccccc1-c1c2ccc(=N)c(Br)c-2oc2c(Br)c(N)ccc12 [HA-X-44, 4,5-dibromorhodamine 110 2-(2-methoxyethoxy)ethyl esther]	showed antibacterial activity			eradicates bacterial growth				showed antibacterial activity	5		showed antibacterial activity	eradication	inhibit cytometalovirus infectivity; also recorded: did not need PDT treatment to possess antiviral activity		
CCN=c1c(C)cc2c(-c3ccccc3C(=O)OCC)c3cc(C)c(NCC)c(Br)c3oc-2c1Br [HA-X-171, 4,5-dibromorhodamine 6G]					possess antiviral activity						showed antibacterial activity	3.7 logs		showed antibacterial activity	6,5 logs
CCN(CC)c1ccc2c(-c3ccccc3C(=O)OCCCBr)c3ccc(=[N+](CC)CC)cc-3oc2c1 [HA-VIII-92, rhodamine B 3-bromopropyl ester]					possess antiviral activity										
acetate salt of 2,7-dibromorhodamine B methyl ester [HA-X-164]	showed antibacterial activity			3 logs	possess antiviral activity			showed antibacterial activity	0.3		showed antibacterial activity	0.25 logs			
